Patent publication US20010044437A1, “Methods for reducing uric acid levels” (priority 2000, published 2001)
“And” between values parts separate entries of the source, which are not always exact repeats. Equal values may be shown once.

Legend:
serum uric acid [1] = assay: Serum uric acid after a single dose (tablet or suspension) in healthy human subjects (Example 33); assay type: in vivo; details: individual subjects
Experimental: Thirty six healthy human subjects are administered either […] or a suspension containing the noted amount of the compound of Example 3 after fasting for at least 8 hours. subjects are administered 200 mg of compound; twelve subjects are administered 400 mg of compound; and twelve subjects are administered 600 mg of compound. Blood was collected before subjects are given the compound (Day −1) and the day following administration (Day 2). Serum uric levels may be measured using standard automated procedures on a uricase peroxidase method. Serum uric acid levels are […] in mg/dL.

serum uric acid [2] = assay: Serum uric acid during 28-day once-daily oral dosing, placebo-controlled study in 48 subjects (Example 34); assay type: in vivo, human
Experimental: In another study, 48 subjects were divided into four groups, A, B, C and D, and administered the noted amount of the compound of Example 3. Each group was composed of 12 subjects of whom 9 received the compound and 3 received placebo. The non-placebo members of group A received 50 mg of compound, administered orally once a day for 28 days as a single 50 mg tablet. The non-placebo members of group B received 200 mg of compound administered orally once a day for 28 days as a single 200 mg tablet. The non-placebo members of group C received 500 mg of compound administered orally once a day for 28 days as two 50 mg tablets and two 200 mg tablets. The non-placebo members of group D received 800 mg of compound administered orally once a day for 28 days as four 200 mg tablets. The 3 placebo members of each group, received an amount of placebo, as a tablet, equivalent to the amount of test compound—50 mg placebo for group A, 200 mg placebo for group B, 500 mg placebo for group C and 800 mg placebo for group D. Each subject received a single dose of either compound or placebo for 28 days. The subjects were confined at the clinical site beginning the day before dose administration until 72 hours after the final dose administration on Day 28 and returned for an outpatient visit on Day 35.
Uric acid levels were measured prior to beginning the study (screening), on the day immediately prior to commencement of the study (day-1), and then as noted in the table. Hours indicates the time since the last dose was administered. For example, Day 7, 0 hour indicates the time the serum uric acid level at the time the dose was administered and Day 7, 2 hour indicates the uric acid level two hours after the adminstration that day. Further, the Day 30, 60 hour level is the serum uric acid level measured 60 hours (on Day 30) after the last dose was administered on Day 28. The uric acid levels are presented in mg/dL as a mean of all subjects in each group.

## O=C(O)Cn1cc(Cc2nc3c(F)c(F)cc(F)c3s2)c2ccccc21 [Example 3, 3-(4,5,7-Trifluorobenzothiazol-2-yl)methyl-indole-N-acetic Acid]
Serum uric acid [1]; 200 mg suspension, Day 2 vs Day-1
  % Reduction (Suspension): 36% (3×) and 27% and 25% and −51% and 23% (2×) and 35% and 0% and 20% and 11%
Serum uric acid [1]; 200 mg suspension, before administration (baseline)
  Uric Acid Day-1 Suspension: 5.0 mg/dL (2×) and 6.0 mg/dL and 5.3 mg/dL (2×) and 4.3 mg/dL and 5.2 mg/dL and 5.5 mg/dL and 4.7 mg/dL and 3.3 mg/dL and 6.3 mg/dL and 4.5 mg/dL
Serum uric acid [1]; 200 mg suspension, day following administration
  Uric Acid Day 2 (Suspension): 3.2 mg/dL and 4.4 mg/dL and 4.0 mg/dL (3×) and 6.5 mg/dL and 3.6 mg/dL (2×) and 5.3 mg/dL and 2.1 mg/dL and 5.6 mg/dL and 2.9 mg/dL
Serum uric acid [1]; 200 mg tablet, Day 2 vs Day-1
  % reduction (Tablet): 28% and 27% and 26% and −3% and 16% (2×) and 39% (2×) and −2% and 32% and 41% and −16%
Serum uric acid [1]; 200 mg tablet, before administration (baseline)
  Uric Acid Day-1 Tablet: 5.0 mg/dL and 6.3 mg/dL and 5.3 mg/dL and 5.8 mg/dL and 4.9 mg/dL (3×) and 6.2 mg/dL and 5.2 mg/dL and 5.7 mg/dL and 3.7 mg/dL and 5.1 mg/dL
Serum uric acid [1]; 200 mg tablet, day following administration
  Uric Acid Day 2 (Tablet): 3.6 mg/dL and 4.6 mg/dL and 3.9 mg/dL (2×) and 6.0 mg/dL and 4.1 mg/dL (2×) and 3.8 mg/dL and 5.3 mg/dL and 2.2 mg/dL and 5.7 mg/dL and 3.1 mg/dL
Serum uric acid [1]; 400 mg, Day 2 vs Day-1
  % reduction: 47% and 5% and 67% and 9% and 49% and 43% and 2% and 36% and 45% and 51% and −13% and 24%
Serum uric acid [1]; 400 mg, before administration (baseline)
  Uric acid Day-1: 4.5 mg/dL and 4.3 mg/dL and 6.6 mg/dL and 5.3 mg/dL and 3.7 mg/dL and 5.6 mg/dL and 6.0 mg/dL and 4.7 mg/dL (2×) and 7.7 mg/dL and 6.2 mg/dL and 4.6 mg/dL
Serum uric acid [1]; 400 mg, day following administration
  Uric acid Day 2: 2.4 mg/dL and 4.1 mg/dL and 2.2 mg/dL and 4.8 mg/dL and 1.9 mg/dL and 3.2 mg/dL and 5.9 mg/dL and 3.0 mg/dL and 4.2 mg/dL and 2.3 mg/dL and 7.0 mg/dL and 3.5 mg/dL
Serum uric acid [1]; 600 mg, Day 2 vs Day-1
  % reduction: −6% and −44% and 45% and 55% and 42% and 2% and 57% and 47% and 37% and 58% and 50%
Serum uric acid [1]; 600 mg, before administration (baseline)
  Uric acid Day-1: 4.7 mg/dL and 4.3 mg/dL and 5.5 mg/dL and 4.4 mg/dL (2×) and 5.9 mg/dL and 4.6 mg/dL and 3.5 mg/dL and 3.4 mg/dL and 3.0 mg/dL and 3.9 mg/dL
Serum uric acid [1]; 600 mg, day following administration
  Uric acid Day 2: 5.0 mg/dL and 33 mg/dL and 6.2 mg/dL and 3.0 mg/dL and 2.0 mg/dL and 3.4 mg/dL and 4.5 mg/dL and 1.5 mg/dL and 1.8 mg/dL and 1.9 mg/dL and 1.7 mg/dL and 2.2 mg/dL
Serum uric acid [2]; group A 50 mg orally once a day, Day 1 8 Hour
  Uric Acid Level (mean of all subjects in each group): 3.94 mg/dL
Serum uric acid [2]; group A 50 mg orally once a day, Day 1 10 Hour
  Uric Acid Level (mean of all subjects in each group): 3.87 mg/dL
Serum uric acid [2]; group A 50 mg orally once a day, Day 1 12 Hour
  Uric Acid Level (mean of all subjects in each group): 3.89 mg/dL
Serum uric acid [2]; group A 50 mg orally once a day, Day 1 16 Hour
  Uric Acid Level (mean of all subjects in each group): 3.98 mg/dL
Serum uric acid [2]; group A 50 mg orally once a day, Day 1 24 Hour
  Uric Acid Level (mean of all subjects in each group): 4.19 mg/dL
Serum uric acid [2]; group A 50 mg orally once a day, Day 3
  Uric Acid Level (mean of all subjects in each group): 3.62 mg/dL
Serum uric acid [2]; group A 50 mg orally once a day, Day 7 0 Hour
  Uric Acid Level (mean of all subjects in each group): 3.36 mg/dL
Serum uric acid [2]; group A 50 mg orally once a day, Day 7 0.5 Hour
  Uric Acid Level (mean of all subjects in each group): 3.33 mg/dL
Serum uric acid [2]; group A 50 mg orally once a day, Day 7 1 Hour
  Uric Acid Level (mean of all subjects in each group): 3.28 mg/dL
Serum uric acid [2]; group A 50 mg orally once a day, Day 7 2 Hour
  Uric Acid Level (mean of all subjects in each group): 3.14 mg/dL
Serum uric acid [2]; group A 50 mg orally once a day, Day 7 3 Hour
  Uric Acid Level (mean of all subjects in each group): 3.03 mg/dL
Serum uric acid [2]; group A 50 mg orally once a day, Day 7 4 Hour
  Uric Acid Level (mean of all subjects in each group): 2.99 mg/dL
Serum uric acid [2]; group A 50 mg orally once a day, Day 7 6 Hour
  Uric Acid Level (mean of all subjects in each group): 3.30 mg/dL
Serum uric acid [2]; group A 50 mg orally once a day, Day 7 8 Hour
  Uric Acid Level (mean of all subjects in each group): 3.34 mg/dL
Serum uric acid [2]; group A 50 mg orally once a day, Day 7 10 Hour
  Uric Acid Level (mean of all subjects in each group): 3.36 mg/dL
Serum uric acid [2]; group A 50 mg orally once a day, Day 7 12 Hour
  Uric Acid Level (mean of all subjects in each group): 3.26 mg/dL
Serum uric acid [2]; group A 50 mg orally once a day, Day 7 16 Hour
  Uric Acid Level (mean of all subjects in each group): 3.07 mg/dL
Serum uric acid [2]; group A 50 mg orally once a day, Day 7 24 Hour
  Uric Acid Level (mean of all subjects in each group): 3.48 mg/dL
Serum uric acid [2]; group A 50 mg orally once a day, Day 14 0 Hour
  Uric Acid Level (mean of all subjects in each group): 3.51 mg/dL
Serum uric acid [2]; group A 50 mg orally once a day, Day 14 0.5 Hour
  Uric Acid Level (mean of all subjects in each group): 3.43 mg/dL
Serum uric acid [2]; group A 50 mg orally once a day, Day 14 1 Hour
  Uric Acid Level (mean of all subjects in each group): 3.41 mg/dL
Serum uric acid [2]; group A 50 mg orally once a day, Day 14 2 Hour
  Uric Acid Level (mean of all subjects in each group): 3.37 mg/dL
Serum uric acid [2]; group A 50 mg orally once a day, Day 14 3 Hour
  Uric Acid Level (mean of all subjects in each group): 3.19 mg/dL
Serum uric acid [2]; group A 50 mg orally once a day, Day 14 4 Hour
  Uric Acid Level (mean of all subjects in each group): 3.17 mg/dL
Serum uric acid [2]; group A 50 mg orally once a day, Day 14 6 Hour
  Uric Acid Level (mean of all subjects in each group): 3.38 mg/dL
Serum uric acid [2]; group A 50 mg orally once a day, Day 14 8 Hour
  Uric Acid Level (mean of all subjects in each group): 3.34 mg/dL
Serum uric acid [2]; group A 50 mg orally once a day, Day 14 10 Hour
  Uric Acid Level (mean of all subjects in each group): 3.24 mg/dL
Serum uric acid [2]; group B 200 mg orally once a day, Day 1 8 Hour
  Uric Acid Level (mean of all subjects in each group): 3.37 mg/dL
Serum uric acid [2]; group B 200 mg orally once a day, Day 1 10 Hour
  Uric Acid Level (mean of all subjects in each group): 3.16 mg/dL
Serum uric acid [2]; group B 200 mg orally once a day, Day 1 12 Hour
  Uric Acid Level (mean of all subjects in each group): 3.12 mg/dL
Serum uric acid [2]; group B 200 mg orally once a day, Day 1 16 Hour
  Uric Acid Level (mean of all subjects in each group): 3.01 mg/dL
Serum uric acid [2]; group B 200 mg orally once a day, Day 1 24 Hour
  Uric Acid Level (mean of all subjects in each group): 3.64 mg/dL
Serum uric acid [2]; group B 200 mg orally once a day, Day 3
  Uric Acid Level (mean of all subjects in each group): 2.94 mg/dL
Serum uric acid [2]; group B 200 mg orally once a day, Day 7 0 Hour
  Uric Acid Level (mean of all subjects in each group): 2.86 mg/dL
Serum uric acid [2]; group B 200 mg orally once a day, Day 7 0.5 Hour
  Uric Acid Level (mean of all subjects in each group): 2.79 mg/dL
Serum uric acid [2]; group B 200 mg orally once a day, Day 7 1 Hour
  Uric Acid Level (mean of all subjects in each group): 2.74 mg/dL
Serum uric acid [2]; group B 200 mg orally once a day, Day 7 2 Hour
  Uric Acid Level (mean of all subjects in each group): 2.61 mg/dL
Serum uric acid [2]; group B 200 mg orally once a day, Day 7 3 Hour
  Uric Acid Level (mean of all subjects in each group): 2.50 mg/dL
Serum uric acid [2]; group B 200 mg orally once a day, Day 7 4 Hour
  Uric Acid Level (mean of all subjects in each group): 2.47 mg/dL
Serum uric acid [2]; group B 200 mg orally once a day, Day 7 6 Hour
  Uric Acid Level (mean of all subjects in each group): 2.72 mg/dL
Serum uric acid [2]; group B 200 mg orally once a day, Day 7 8 Hour
  Uric Acid Level (mean of all subjects in each group): 2.54 mg/dL
Serum uric acid [2]; group B 200 mg orally once a day, Day 7 10 Hour
  Uric Acid Level (mean of all subjects in each group): 2.53 mg/dL
Serum uric acid [2]; group B 200 mg orally once a day, Day 7 12 Hour
  Uric Acid Level (mean of all subjects in each group): 2.44 mg/dL
Serum uric acid [2]; group B 200 mg orally once a day, Day 7 16 Hour
  Uric Acid Level (mean of all subjects in each group): 2.43 mg/dL
